Two molecules from patent publication US20020146787A1, “Coenzymes useful for the synthesis of L-carnitine” (Sigma-Tau Industrie Farmaceutiche Riunite S.p.A, priority 1998, published 2002) can be followed below.

Each structure is given as a SMILES string.

The test system of data set [1] is system of racemization of carnitine. Nature of the data set: Racemization reaction test (formation of L(−)-carnitine from D(+)-carnitine). The class given is biochemical. The following applies: 0.002 μmol cofactor, 10 min at 37° C. The procedure: (§1) The L(−)-carnitine formed was subsequently tested with an optical test with the aid of carnitine acetyltransferase (according to BERGMEYER (1970)). A similar procedure was adopted in the racemization reaction test, in which a solution of D(+)-carnitine (1M) was added in the place of crotonobetaine. The L(−)-carnitine formed can be determined exactly by prior testing of the system with known solutions of L(−)-carnitine.
Formation of L(−)-carnitine from D(+)-carnitine by means of a system of racemization of carnitine and gamma-butyrobetainyl-coenzyme A (BB-CoA) after 10 minutes' incubation at 37° C. on potassium phosphate buffer (10 mM, pH 7.5).
Formation of L(−)-carnitine from D(+)-carnitine via a system of racemization of carnitine and crotonobetainyl-coenzyme A (CB-CoA) after 10 minutes' incubation at 37° C. on potassium phosphate buffer (10 mM, pH 7.5).

The next data set in a line: pH stability for 1 h. The class given is physicochemical. The following applies: pH range. How it is done: (§2) The gamma-butyrobetainyl chloride thus obtained is suitable for the synthesis of gamma-butyrobetainyl-coenzyme A. Coenzyme A is first suspended in an iced mixture of 1M of sodium bicarbonate at pH 7.5-9.5 (preferably pH 8.5). To this is added a definite amount of gamma-butyrobetainyl chloride (preferably in excess) keeping the pH values under control. After 15-30 minutes the reaction is complete. The formation of gamma-butyrobetainyl-coenzyme A is checked by HPLC (Spherisorb, C18 column) and finally subjected to a further purification stage (ion-exchange chromatography on DOWEX 50). The purity is checked again by HPLC (Spherisorb, C18 column). The physicochemical properties were determined on the washed product (see following table).
as §2, with “crotonobetainyl” for “gamma-butyrobetainyl”, “crotonobetainyl-coenzyme” for “gamma-butyrobetainyl-coenzyme”, “The purity is checked again by HPLC (Spherisorb, C18 column).” left out

For data set [2], the target named is T1, L(−)-carnitine dehydratase (Escherichia coli, UniProt P31572).
T1 construct: partly concentrated L(−)-carnitine dehydratase (without factor F showing any activity)
T1 sequence (P31572 whole entry): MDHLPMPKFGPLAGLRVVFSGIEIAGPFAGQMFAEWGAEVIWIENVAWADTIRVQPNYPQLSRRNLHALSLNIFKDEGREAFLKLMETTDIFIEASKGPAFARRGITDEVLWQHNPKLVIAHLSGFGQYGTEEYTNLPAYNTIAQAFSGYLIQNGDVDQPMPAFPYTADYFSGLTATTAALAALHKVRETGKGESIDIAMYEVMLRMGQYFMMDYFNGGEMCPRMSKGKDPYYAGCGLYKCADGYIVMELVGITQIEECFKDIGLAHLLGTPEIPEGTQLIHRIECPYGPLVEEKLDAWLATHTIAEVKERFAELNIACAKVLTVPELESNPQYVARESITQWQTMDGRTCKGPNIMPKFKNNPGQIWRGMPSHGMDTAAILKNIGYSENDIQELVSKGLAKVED
Nature of the data set: L(−)-carnitine dehydratase activation test (formation of L(−)-carnitine from crotonobetaine). The class given is biochemical. The following applies: 0.002 μmol cofactor, 10 min at 37° C. How it is done:
For the L(−)-carnitine dehydratase activation test according to the invention purified gamma-butyrobetainyl-coenzyme A is supplied (preferably 1-10 nmol) on potassium phosphate buffer (10 mM pH 7.5), which is added with partly concentrated L(−)-carnitine dehydratase (without factor F showing any activity) and the crotonobetaine solution to be metabolized (1M) and incubated at 37° C.
as §1
For the L(−)-carnitine dehydratase activation test according to the invention purified crotonobetainyl-coenzyme A is supplied (preferably 1-10 nmol) on potassium phosphate buffer (10 mM pH 7.5), which is added with partly concentrated L(−)-carnitine dehydratase (without factor F showing any activity) and the crotonobetaine solution to be metabolized (1M) and incubated at 37° C.
Formation of L(−)-carnitine from crotonobetaine by means of concentrated L(−)-carnitine dehydratase and gamma-butyrobetainyl-coenzyme A (BB-CoA) after 10 minutes' incubation at 37° C. on potassium phosphate buffer (10 mM, pH 7.5).
Formation of L(−)-carnitine from crotonobetaine by means of concentrated L(−)-carnitine dehydratase and crotonobetainyl-coenzyme A (CB-CoA) after 10 minutes' incubation at 37° C. on potassium phosphate buffer (10 mM, pH 7.5).

The nature of data set [3]: Temperature stability (1 h). The format is physicochemical. How it is done:
as §2
as §2, with “crotonobetainyl” for “gamma-butyrobetainyl”, “crotonobetainyl-coenzyme” for “gamma-butyrobetainyl-coenzyme”

A short description of the next data set: Solubility. The format is physicochemical. The following applies: solvent in which soluble. The procedure:
as §2
as §2, with “crotonobetainyl” for “gamma-butyrobetainyl”, “crotonobetainyl-coenzyme” for “gamma-butyrobetainyl-coenzyme”, “The purity is checked again by HPLC (Spherisorb, C18 column).” left out

The mark [4] stands for this setting: 0 μg carnitine racemization system, 20 μmol substrate, pH 7.5.
The mark [5] stands for this setting: 30 μg carnitine racemization system, 0 μmol substrate, pH 7.5.
Where [6] appears, read: 30 μg carnitine racemization system, 20 μmol substrate (head: Crotonobetaine, text: D(+)-carnitine), potassium phosphate buffer 10 mM pH 7.5.
[7] abbreviates: 0 μg L-carnitine dehydratase (no enzyme), 20 μmol crotonobetaine, pH 7.5.
Setting [8] is: 10 μg L-carnitine dehydratase, 0 μmol crotonobetaine (no substrate), pH 7.5.
The mark [9] stands for this setting: 10 μg L-carnitine dehydratase, 20 μmol crotonobetaine, potassium phosphate buffer 10 mM pH 7.5.

As for `CC(C)(COP(=O)(O)OP(=O)(O)OC[C@H]1O[C@@H](n2cnc3c(N)ncnc32)[C@H](O)[C@@H]1OP(=O)(O)O)[C@@H](O)C(=O)NCCC(=O)NCCSC(=O)CCC[N+](C)(C)C` [BB-CoA, gamma-butyrobetainyl-coenzyme A], the Carnitine synthesis in data set [1] (setting [4]) was found to be 0 µmol; in data set [1] (setting [5]), 0 µmol; in data set [1] (setting [6]), 0.162 µmol; in data set [2] (setting [7]) it was 0 µmol; in data set [2] (setting [8]), 0 µmol; in data set [2] (setting [9]) it was 0.18 µmol. Also, in the data set “pH stability for 1 h”, the “pH stability for 1 h” value is given as 3-10. The entries for the “Temperature stability (1 h)” value in data set [3] (0° C. to 90° C.) and in data set [3] (−20° C.) were >90%: 0 °C to 90 °C and 100%: −20 °C, respectively. In “Solubility”, the Solubility result is “water”.
For the molecule `CC(C)(COP(=O)(O)OP(=O)(O)OC[C@H]1O[C@@H](n2cnc3c(N)ncnc32)[C@H](O)[C@@H]1OP(=O)(O)O)[C@@H](O)C(=O)NCCC(=O)NCCSC(=O)/C=C/C[N+](C)(C)C` [CB-CoA, crotonobetainyl-coenzyme A], the Carnitine synthesis was 0 µmol in data set [1] (setting [4]); 0 µmol in data set [1] (setting [5]); 0.243 µmol in data set [1] (setting [6]); 0 µmol in data set [2] (setting [7]); 0 µmol in data set [2] (setting [8]); 0.271 µmol in data set [2] (setting [9]). Moreover, the “pH stability for 1 h” value in “pH stability for 1 h” was 2-10. Further, the “Temperature stability (1 h)” value in data set [3] (20° C. to 60° C.) is 75%: 20 °C to 60 °C; in data set [3] (−20° C. to 0° C.), 100%: −20 °C to 0 °C. Besides, in the data set “Solubility”, the Solubility entry was “water”.
